Patent publication US20170182047A9, “Post-Translational Regulation of Catalytic Activities of Cytochrome P450 46A1 and Uses Thereof” (The Board of Regents of the University of Texas System, priority 2007, published 2017)
Where a name gives a salt, the structure may show the parent alone. Read-outs that look alike come from different tables or passages of the source.

Key:
full-length CYP46A1 [1] = biological target: T1, full-length CYP46A1 (Homo sapiens, UniProt Q9Y6A2); assay: Inhibition/stimulation of cholesterol hydroxylase activity at fixed 43 μM test compound; format: biochemical; details: for inhibition of cholesterol hydroxylation (in words): FIG. 4A-4C; for CHO hydroxylation: remaining activity, None = 100, 43 μM added steroid; for Activity: cholesterol hydroxylation by CYP46A1, % of no compound; for inhibition at 43 µM: read-out: inhibition of the CYP46A1
Δ(2-50)CYP46A1dH = Δ(2-50)CYP46A1dH (Homo sapiens, UniProt Q9Y6A2); assay: Kinetic studies, reconstituted system with cytochrome P450 reductase, truncated CYP46A1; details: compound as substrate; for kcat: Δ(2-50) CYP46A1 with C-terminal 4x His-tag, 37° C.
Experimental: (§2) The ability of recombinant CYP46A1 to metabolize CH-3S was tested using the reconstituted with cytochrome P450 reductase in vitro system. After termination of the enzyme reaction, the substrate and products were extracted, solvolyzed, converted into trimethylsilyl ethers and analyzed by gas chromatography-mass spectrometry as described (23). […] The reaction conditions were optimized for the formation of only one product.
(§3) The reconstituted system (1 ml) contained 0.1-0.25 μM P450, 0.5 μM NADPH cytochrome P450 oxidoreductase, varying concentrations of cold substrate (1-75 μM), 250,000 cpm of radiolabeled substrate, and 2U of catalase. […] The organic phase was isolated, evaporated, dissolved in acetonitrile, and subjected to HPLC. […] Substrate metabolism was <18% and linear with reaction time and enzyme concentration.

full-length CYP46A1 [2] = biological target: T1, full-length CYP46A1; assay: Kinetic studies, reconstituted system with cytochrome P450 reductase, full-length CYP46A1; details: compound as substrate; for kcat: Full-length CYP46A1 with C-terminal 4x His-tag, 37° C.
Experimental: as §2, §3

CYP46A1 [3] = biological target: T2, CYP46A1 (Homo sapiens, UniProt Q9Y6A2); assay: Spectral binding studies; design: 4×His (C)
Experimental: (§1) Titrations of CYP46A1dH were carried out in 50 mM KPi, pH 7.2, containing 100 mM NaCl and 0.02% Cymal-6. Steroids were added from 0.2-5 mM stocks in 2.5-45% aqueous 2-hydroxypropyl-p-cyclodextrin; clobenpropit, thioperamide, phenacetin, acetaminophen, 4′-(2-hydroxyethoxy)-acetanilide, quinine, quinidine, lansoprazole, and dapsone were dissolved in water, and tranylcypromine in 50% MetOH. The Kd and maximal absorbance change were estimated by non-linear least squares fitting using the quadratic form of the single-site binding equation (30).
Target sequence in this assay (Q9Y6A2 with tags, fused parts or gaps): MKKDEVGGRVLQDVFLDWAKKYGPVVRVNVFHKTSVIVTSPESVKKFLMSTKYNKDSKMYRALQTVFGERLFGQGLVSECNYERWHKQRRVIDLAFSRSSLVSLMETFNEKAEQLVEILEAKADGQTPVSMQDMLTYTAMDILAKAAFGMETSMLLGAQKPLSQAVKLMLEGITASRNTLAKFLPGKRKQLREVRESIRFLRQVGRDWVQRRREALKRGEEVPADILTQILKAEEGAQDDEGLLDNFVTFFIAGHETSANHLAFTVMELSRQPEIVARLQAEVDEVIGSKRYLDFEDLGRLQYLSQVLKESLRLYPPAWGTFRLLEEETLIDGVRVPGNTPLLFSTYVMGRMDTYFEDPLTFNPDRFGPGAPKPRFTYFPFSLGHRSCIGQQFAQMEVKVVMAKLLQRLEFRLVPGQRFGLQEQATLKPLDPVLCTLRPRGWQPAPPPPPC

CYP46A1 [4] = biological target: T2, CYP46A1; assay: Spectral binding studies; design: fused on or other part: C-terminal 4xHis tag (dH); details: Table 2
Experimental: as §1
Target sequence in this assay (Q9Y6A2 whole entry): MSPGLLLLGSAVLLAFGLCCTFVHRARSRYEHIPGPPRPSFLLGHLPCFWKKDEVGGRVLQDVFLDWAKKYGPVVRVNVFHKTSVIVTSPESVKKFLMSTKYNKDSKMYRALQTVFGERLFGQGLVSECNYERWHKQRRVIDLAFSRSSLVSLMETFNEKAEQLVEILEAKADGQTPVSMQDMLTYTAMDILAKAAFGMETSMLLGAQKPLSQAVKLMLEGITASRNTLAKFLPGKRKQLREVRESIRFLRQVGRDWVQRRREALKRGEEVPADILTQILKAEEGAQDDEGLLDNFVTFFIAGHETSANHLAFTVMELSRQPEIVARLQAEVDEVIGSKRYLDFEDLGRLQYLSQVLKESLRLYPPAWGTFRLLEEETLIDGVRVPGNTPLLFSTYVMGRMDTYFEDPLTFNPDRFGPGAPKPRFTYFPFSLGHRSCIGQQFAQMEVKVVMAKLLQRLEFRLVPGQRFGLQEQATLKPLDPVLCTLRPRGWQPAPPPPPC

CYP46A1 [5] = biological target: T2, CYP46A1; assay: In vitro IC50 and Ki for CYP46A1-catalysed hydroxylation; format: biochemical; design: Recombinant full-length human CYPs 46A1 and 27A1 and bovine CYP11A1 were expressed and purified; made in house; details: Ki = IC50/2 assuming competitive inhibition; 5.4 μM cholesterol (at Km); read-out: Ki
Experimental: Cholesterol hydroxylation by CYP46A1 was assayed for 20 min at 37° C. in 1 ml of 50 mM KPi, pH 7.2, containing 100 mM NaCl, 0.02% Cymal 6, 40 μg dilauroylglycerol-3-phosphatidylcholine and 2U of catalase. […] The enzymatic reaction was initiated by NADPH (final 1 mM) and terminated by vortexing with 2 ml of CH2Cl2. The organic phase was isolated, evaporated, dissolved in methanol, and subjected to HPLC. […] In addition, the Ki for cholesterol 24-hydroxylation was estimated assuming a model of competitive inhibition.
Target sequence in this assay (Q9Y6A2 whole entry): as above

[6] = 2.7 μM cholesterol, 43 μM compound
[7] = 2.7 μM cholesterol, 43 μM compound, FIG. 4B, 4D, 4E

T1 sequence (Q9Y6A2 whole entry, the tested form may be a part): as the sequence (Q9Y6A2 whole entry) above
Sequence of Δ(2-50)CYP46A1dH (Q9Y6A2 with tags, fused parts or gaps): as the sequence (Q9Y6A2 with tags, fused parts or gaps) above

Clc1ccc(-c2c[nH]cn2)cc1 [4-CPi, 4-(4-chlorophenyl)imidazole]
inhibition of cholesterol hydroxylation (in words) (full-length CYP46A1 [1]; [6]): significant inhibition

CC(C)[C@@H](O)CC[C@@H](C)[C@H]1CC[C@H]2[C@@H]3CC=C4C[C@@H](O)CC[C@]4(C)[C@H]3CC[C@]12C [24OH—CH, 24S-hydroxycholesterol]
Km (Δ(2-50)CYP46A1dH; Δ(2-50) CYP46A1): 1.5 µM
kcat (Δ(2-50)CYP46A1dH): 0.0142 s⁻¹
Km (full-length CYP46A1 [2]; Full-length CYP46A1): 3.9 µM
kcat (full-length CYP46A1 [2]): 0.0153 s⁻¹

CC(C)CCC[C@@H](C)[C@H]1CC[C@H]2[C@@H]3CC=C4C[C@@H](OS(=O)(=O)O)CC[C@]4(C)[C@H]3CC[C@]12C [Cholesterol-SO4, cholesterol sulfate]
Kd (CYP46A1 [3]): 0.007 µM
kcat (Δ(2-50)CYP46A1dH): 0.0417 s⁻¹
kcat (full-length CYP46A1 [2]): 0.00767 s⁻¹
Kd (CYP46A1 [4]): 0.05 ± 0.003 µM

CC(C)CCC[C@@H](C)[C@H]1CC[C@H]2[C@@H]3CC=C4C[C@@H](O)CC[C@]4(C)[C@H]3CC[C@]12C [Cholesterol]
Kd (CYP46A1 [3]; Δ(2-50)CYP46A1dH, read-out: estimated Kd): 0.1 µM
Kd (CYP46A1 [4]): 0.67 ± 0.02 µM
CHO hydroxylation (full-length CYP46A1 [1]; 2.7 μM cholesterol): 27 ± 3%

C[C@]12CC[C@@H]3c4ccc(O)cc4CC[C@H]3[C@@H]1CC[C@@H]2O [Estradiol]
CHO hydroxylation (full-length CYP46A1 [1]; 2.7 μM cholesterol): 32 ± 3%

Cc1cccc(C)c1OCC(C)N (stereo not shown) [Mexiletine]
Activity (full-length CYP46A1 [1]; 43 μM compound): 107 ± 3%

CC(=O)Nc1ccc(OCCO)cc1 [Phenacetin analog 1, 4′-(2-hydroxyethoxy)-acetanilide]
increase (stimulation) of cholesterol 24-hydroxylation (full-length CYP46A1 [1]; 43 μM compound): 45%
Activity (full-length CYP46A1 [1]; 43 μM compound): 145 ± 5%

CCOc1ccc(NC(C)=O)cc1 [Phenacetin]
Activity (full-length CYP46A1 [1]; 43 μM compound): 135 ± 5%

CC(=O)[C@H]1CC[C@H]2[C@@H]3CC=C4C[C@@H](O)CC[C@]4(C)[C@H]3CC[C@]12C [Pregnenolone]
Spectral Kd (CYP46A1 [4]): Not determined, no spectral
CHO hydroxylation (full-length CYP46A1 [1]; 2.7 μM cholesterol): 32 ± 1%

C[C@]12CC[C@H]3[C@@H](CCC4=CC(=O)CC[C@@]43C)[C@@H]1CC[C@@H]2O [Testosterone]
CHO hydroxylation (full-length CYP46A1 [1]; 2.7 μM cholesterol): 49 ± 4%

CN/C(=N/CCSCc1nc[nH]c1C)NC#N [cimetidine]
inhibition at 43 µM (full-length CYP46A1 [1]; [7]): > 90%

NC(=NCc1ccc(Cl)cc1)SCCCc1cnc[nH]1 [clobenpropit]
inhibition at 43 µM (full-length CYP46A1 [1]): > 90%

Clc1ccccc1C(c1ccccc1)(c1ccccc1)n1ccnc1 [clotrimazole]
inhibition of cholesterol hydroxylation (in words) (full-length CYP46A1 [1]; [6]): significant inhibition

NC(N)=Nc1nc(CSCCC(N)=NS(N)(=O)=O)cs1 [famotidine]
inhibition of cholesterol hydroxylation (in words) (full-length CYP46A1 [1]; [6]): inhibited cholesterol hydroxylation

CNC(=C[N+](=O)[O-])NCCSCc1csc(CN(C)C)n1 [nizatidine]
inhibition of cholesterol hydroxylation (in words) (full-length CYP46A1 [1]; [6]): inhibited cholesterol hydroxylation

CNC(=C[N+](=O)[O-])NCCSCc1ccc(CN(C)C)o1 [ranitidine]
inhibition at 43 µM (full-length CYP46A1 [1]; [7]): > 90%

S=C(NC1CCCCC1)N1CCC(c2cnc[nH]2)CC1 [thioperamide]
inhibition of cholesterol hydroxylation (in words) (full-length CYP46A1 [1]; [6]): inhibited cholesterol hydroxylation

Acetaminophen
Activity (full-length CYP46A1 [1]; 43 μM compound): 132 ± 4%

DHEA
CHO hydroxylation (full-length CYP46A1 [1]; 2.7 μM cholesterol): 58 ± 3%

DHEA sulfate [DHEA-SO4]
CHO hydroxylation (full-length CYP46A1 [1]; 2.7 μM cholesterol): 33 ± 3%

estradiol sulfate [Estradiol-SO4]
CHO hydroxylation (full-length CYP46A1 [1]; 2.7 μM cholesterol): 27 ± 2%

pregnenolone sulfate [Pregnenolone-SO4]
Ki (CYP46A1 [5]): 2.5 µM
CHO hydroxylation (full-length CYP46A1 [1]; 2.7 μM cholesterol): 8 ± 2%

testosterone sulfate [Testosterone-SO4]
CHO hydroxylation (full-length CYP46A1 [1]; 2.7 μM cholesterol): 40 ± 2%
